According to patent publication US20200341000A1, “METHOD OF SCREENING COMPOUNDS FOR TREATING CNS DISORDERS” (SAGE THERAPEUTICS, INC., priority 2017, published 2020):
Marks after values point to notes of the source that are not given here.

What was measured:
[1] = system: GABAA receptor β3 subunit S408/9 phosphorylation; experiment: Immunoblot of β3 S408/9 phosphorylation in hippocampal slices; type: cell-based, mice; details: 100 nM, 20 min, acute hippocampal slices
Protocol: Hippocampi were dissected out of acute slices from 8 to 12 week old C57/B16 mice and lysed with phosphate buffer including: 20 mM Tris-HCl, 150 mM NaCl, 5 mM EDTA, 10 mM NaF, 2 mM Na3VO4, 10 mM pyrophosphate, 0.1% SDS and 1% Triton after drug treatment. The β3 subunit was isolated using immunoprecipitation with β3 antibodies, after correction for protein content and the specific activity of labeling. Results were attained by SDS/PAGE followed by autoradiography (Abramian et al., 2010). For biotinylation experiments hippocampi were dissected out of acute slices from 8 to 12 week old C57/B16 mice and incubated in artificial cerebrospinal fluid (ACSF) described above at 30° C. for 1 h for recovery before experimentation. Slices were then placed on ice and incubated for 30 min with 1 mg/mL NHS-SS-biotin (Pierce). Excess biotin was removed by a 50 mM glycine quenching buffer, followed by washing of slices three times in ice-cold ACSF. The tissue was snap frozen on dry ice for 5 min, thawed at 4° C. and lysed. The lysates were solubilized with 2% Triton at 4° C. on a rotating wheel for 1 h. The insoluble material was removed by centrifugation, and 350-500 μg of protein lysate were incubated with NeutrAvidin beads (Pierce) for 18-24 h at 4° C. Bound material was eluted with sample buffer and subjected to SDS/PAGE and then immunoblotted with the indicated antibodies. Blots were then quantified using the CCD-based ChemiDoc XRS ? system. Antibodies against the β3 subunit and the phospho-β3 antibody were generated and verified by the laboratory of S.J.M. (Vien et al., 2015).
To produce antibodies specific for phosphorylated S443, rabbits were injected with a synthetic peptide corresponding to residues […] of the murine α4 subunit in which the serine residue corresponding to S443 was chemically phosphorylated; […]. Hippocampal slices were treated with vehicle (Con), or SGE-516 for 20 min. Slices were immunoblotted with pS408/9, β3, or actin antibodies. The ratio of pS408/9/β3 immunoreactivity was then normalized to control slices (100%=the line).
Hippocampal slices were treated with 100 nM ALLO or P4 (progesterone), and S408/9 phosphorylation was then determined as detailed above, n=4 slices (FIG. 18D). Hippocampal slices were treated with 100 nM ORG (FIG. 18E). S408/9 phosphorylation was examined using immunoblotting.

[2] = system: sIPSCs in dentate gyms granule cells (DGGCs); experiment: Acute (allosteric) modulation of sIPSCs in DGGCs of hippocampal slices; type: cell-based, mice; details: for mean sIPSC amplitude before versus during exposure / mean sIPSC decay time in the presence of compound: 100 nM; for sIPSC Amplitude / sIPSC Decay / sIPSC Frequency: 100 nM acute exposure, n = 5 to 7 neurons
Protocol: Brain slices were prepared from 3- to 5-week-old male C57 mice. Mice were anesthetized with isoflurane, decapitated, and brains were rapidly removed and submerged in ice-cold cutting solution containing (mM): 126 NaCl, 2.5 KCl, 0.5 CaCl2, 2 MgCl2, 26 NaHCO3, 1.25 NaH2PO4, 10 glucose, 1.5 sodium pyruvate, and 3 kynurenic acid. Coronal 310 μm thick slices were cut with the vibratome VT1000S (Leica Microsystems, St Louis, Mo., USA). The slices were then transferred into incubation chamber filled with prewarmed (31-32° C.) oxygenated artificial cerebro-spinal fluid (ACSF) of the following composition (in mM): 126 NaCl, 2.5 KCl, 2 CaCl2, 2 MgCl2, 26 NaHCO3, 1.25 NaH2PO4, 10 glucose, 1.5 sodium pyruvate, 1 glutamine, 3 kynurenic acid and 0.005 GABA bubbled with 95% O2-5% CO2. Slices were allowed to recover at 32° C. for at least 1 hr before recording. Exogenous GABA was added in an attempt to standardize ambient GABA in the slice and provide an agonist source for newly inserted extrasynaptic GABAARs.
After recovery, a single slice was transferred to a submerged, dual perfusion recording chamber (Warner Instruments, Hamden, Conn., USA) on the stage of an upright microscope (Nikon FN-1) with a 40× water immersion objective equipped with DIC/IR optics. Slices were maintained at 32° C. and gravity-superfused with ACSF solution throughout experimentation and perfused at rate of 2 ml/min with oxygenated (O2/CO2 95/5%) ACSF.
Whole-cell currents were recorded from the dentate gyms granule cells (DGGCs) in 310-μm-thick coronal hippocampal slices. Patch pipettes (5-7MΩ) were pulled from borosilicate glass (World Precision Instruments) and filled with intracellular solution of the composition (in mM) as follows: 140 CsCl, 1 MgCl2, 0.1 EGTA, 10 HEPES, 2 Mg-ATP, 4 NaCl and 0.3 Na-GTP (pH=7.2 with CsOH). A 5 min period for stabilization after obtaining the whole-cell recording conformation (holding potential of −60 mV) was allowed before currents were recorded using an Axopatch 200B amplifier (Molecular Devices), low-pass filtered at 2 kHz, digitized at 20 kHz (Digidata 1440A; Molecular Devices), and stored for offline analysis.
For tonic current measurements, an all-points histogram was plotted for a 10 s period before and during 100 μM picrotoxin application, once the response reached a plateau level. Recordings with unstable baselines were discarded. Fitting the histogram with a Gaussian distribution gave the mean baseline current amplitude and the difference between the amplitudes before and during picrotoxin was considered to be the tonic current. The negative section of the all-points histogram which corresponds to the inward IPSCs was not fitted with a Gaussian distribution (Kretschmannova et al., 2013; Nusser and Mody, 2002). Series resistance and whole-cell capacitance were continually monitored and compensated throughout the course of the experiment. Recordings were eliminated from data analysis if series resistance increased by >20%. Spontaneous inhibitory post-synaptic currents (sIPSCs) were analyzed using the mini-analysis software (version 5.6.4; Synaptosoft, Decatur, Ga.). Minimum threshold detection was set to 3 times the value of baseline noise signal. To assess sIPSC kinetics, the recording trace was visually inspected and only events with a stable baseline, sharp rising phase, and single peak were used to negate artifacts due to event summation. Only recordings with a minimum of 200 events fitting these criteria were analyzed. sIPSCs amplitude, and frequency from each experimental condition was pooled and expressed as mean±SEM. To measure sIPSC decay, 100 consecutive events were averaged and the decay was fitted to a double exponential and the weighted decay constant (tw) was determined. Statistical analysis was performed by using Student t-test (paired and unpaired where appropriate), where p<0.05 is considered significant.

Compound	β3 S408/409 phosphorylation (p-β3/T-β3) [1]	mean sIPSC amplitude before versus during exposure [2]	mean sIPSC decay time in the presence of compound [2]	sIPSC Amplitude [2] [pA]	sIPSC Decay [2]	sIPSC Frequency [2] [Hz]
CC(=O)[C@H]1CC[C@H]2[C@@H]3CC[C@H]4C[C@H](O)CC[C@]4(C)[C@H]3CC[C@]12C [ALLO, Allopregnanolone]	increases	no significant difference	significantly increased	59.1 ± 0.6	19.2 ± 1.3^a ms	3.4 ± 1.0
C[C@@]1(O)CC[C@H]2[C@H](CC[C@@H]3[C@@H]2CC[C@]2(C)[C@@H](C(=O)Cn4nccn4)CC[C@@H]32)C1 [SGE-516]	increases	no significant difference	significantly increased	52.9 ± 0.7	15.1 ± 0.8^b ms	4.6 ± 0.6
